Measurements reported in patent publication US20230040081A1 (priority 2019, published 2023).
Several values for one entry are separate records, joined by “and”; a condition that tells them apart may be missing. Equal entries are not always repeated.

B1: vRNAP elongation scaffold (template DNA/non-template DNA/RNA) (mixed)
DNA 1: GACTTATGATCGGATAAGAGTCCAGCCAATGACAGATGCCTCATAGCC
DNA 2: GGCTATGAGGCATCCCATGCGTTGAGGACTCTTATCCGATCATAAGTC
RNA: GAGUUGUAAUAACAAGGGAAAUGUCAUUGGC
modifications: RNA 5'-triphosphate

What was measured:
viral RNA polymerase [1] = assay: Potential inhibitors: Results Screen; format: biochemical; details: test concentration not given
Procedure: (§1) Compound stocks were prepared at a concentration of 1 mM in 65% DMSO, at a volume of 5 μL each.

viral RNA polymerase [2] = assay: Potential inhibitors: Results Hit validation; format: biochemical; details: test concentration not given
Procedure: as §1

Clopt1 (Vaccinia virus) [3] = format: cell-based
Clopt1 (Vaccinia virus) [4] = format: cell-based; remark: listed apart in the source
[5] = target: Vaccinia RNA polymerase core enzyme (Rpo147/Rpo132/Rpo35/Rpo30/Rpo22/Rpo19/Rpo18/Rpo7) (Vaccinia virus (GLV-1h439, Lister …, UniProt P07392;Q76ZP7;P24757;P21603;P68609;P68611;P04310;P68317 …)); assay: structure; details: tags: HA/FLAG C-terminal on Rpo132

| Molecule | Results Screen Median Screen (% inhibition) (viral RNA polymerase [1]) | Results Hit validation Median (% inhibition) (viral RNA polymerase [2]) | also measured |
| --- | --- | --- | --- |
| COc1cc(C)cc(C(=O)O)c1C1=C(O)C(=O)c2c(O)cccc2C1=O [AD153413-06_A10] | 72.4 | 64.1 |  |
| CCC(C)C(=O)OC1CC(C)C=C2C=CC(C)C(CCC(O)CC(O)CC(=O)O)C21 (centres unmarked) [AD153413-16_G9] | 87.4 | 64.7 |  |
| CCCCC(C)C(=O)C(CC(C)CCCCCCC(O)CC(O)C(C)NC(C)=O)OC(=O)CC(CC(=O)O)C(=O)O (centres unmarked) [AD153413-12_D11] | 73.7 | 50.1 |  |
| NC(=O)c1c[nH]c(Cc2ccccc2)cc1=O [AD153413-06_B9] | 80 | 42.9 |  |
| COc1cc(C2c3c(cc(OC)c(O)c3O)CC(CO)C2CO[C@H]2O[C@@H](C(=O)O)[C@H](O)[C@@H](O)[C@@H]2O)cc(OC)c1O (some centres unmarked) [AD153413-11_A11] | 83 | 57.1 |  |
| CC(=O)OC1CC2C(COC(=O)CC(C)C)=CO[C@H](OC(=O)CC(C)C)C2C12CO2 (some centres unmarked) [AD153413-09_A3] | 89.7 | 55.9 |  |
| O=C(/C=C/c1ccc(O)c2c1C(C(=O)O)C(c1ccc(O)c(O)c1)O2)OC(Cc1ccc(O)c(O)c1)C(=O)O (centres unmarked) [AD153413-16_E3] | 77.7 | 55.9 |  |
| COC(=O)C1=COC(OC2O[C@@H](CO)[C@H](O)[C@@H](O)[C@@H]2O)[C@H]2C1C=CC21C=C(C(C)CC(=O)/C=C/c2ccc(O)cc2)C(=O)O1 (some centres unmarked) [AD153413-23_G3] | 60.5 | 61.7 |  |
| CC(=O)O[C@H]1C[C@@H](O)[C@]23COC(O)[C@@]1(C)C2C[C@H](O)[C@@]1(C)C3C(=O)[C@@H](OC(C)=O)[C@]2(C)[C@@H](c3ccoc3)C[C@@H]3O[C@@]321 (some centres unmarked) [AD153413-19_D3] | 71.8 | 41.6 |  |
| COc1ccc(CCC(=O)O)cc1 [AD153413-03_F11] | 70.6 | 41.8 |  |
| O=C1c2ccc(O)cc2O[C@H](c2ccc(O)c(O)c2)[C@H]1O [AD153413-21_A6] | 68.8 | 54.7 |  |
| Oc1cc(O)cc(CCC/C=C\CCCCCCCCCc2cc(O)cc(O)c2)c1 [AD153413-03_H2] | 73.1 | 48.9 |  |
| CCCCCCCC/C(=C/CC(=O)O)C(=O)O [AD153413-16_C3] | 84.3 | 40.5 |  |
| C=C(/C=C/[C@@H](CCC(=O)O)C(C)C)CCC(C)=O [AD153413-08_B4] | 73.6 | 41.9 |  |
| COc1cc(O)c2c(=O)c(O[C@H]3O[C@H](C)[C@@H](O)[C@H](O)[C@@H]3O)c(-c3ccc(O)cc3)oc2c1O [AD153413-05_B3] | 72.4 | 43.6 |  |
| CC(C)C1NC(=O)C2CCCN2C1=O (centres unmarked) [AD153413-12_C11] | 61.7 | 44.2 |  |
| O=C(OC[C@@H]1O[C@H](Oc2ccc(O)cc2CO)[C@@H](O)[C@H](O)[C@H]1O)c1ccccc1 (racemic) [AD153413-11_H9] | 60.5 | 54.9 |  |
| NC(=O)CC[C@H](N)C(=O)O [glutamine, L-glutamine] |  |  | intensity, times lower without glutamine in the third medium switch than counterparts (Clopt1 (Vaccinia virus) [3]): roughly 100 times; final intensity, times lower in glutamine absence than in glutamine fed samples (Clopt1 (Vaccinia virus) [3]; after 21 hours): over 100 times; Factor (Clopt1 (Vaccinia virus) [4]): 1222 and 1468 and 1774 and 2000; virus replication, times higher with glutamine in the third medium switch than negative counterparts (Clopt1 (Vaccinia virus) [4]): more than 1000 times |
| CCC(C)C(=O)O[C@H]1CCC=C2C=C[C@H](C)[C@H](CC[C@@H](O)C[C@@H](O)CC(=O)O)[C@H]21 (some centres unmarked) [AD153413-09_E2] | 90.3 | 60.5 |  |
| C=C(C)C1=C[C@@]2(C)C(=CC1=O)CC[C@@H](O)[C@@H]2C [AD153413-10_F2] | 80 | 50.8 |  |
| C[C@]1(C(=O)O)CC[C@@]2(C)CC[C@@]3(C)C4=CC(=O)c5cc(O)c(O)cc5[C@@]4(C)CC[C@]3(C)[C@H]2C1 [AD153413-04_H6] | 77 | 52.2 |  |

| Molecule | Results Screen Median Screen (% inhibition) (viral RNA polymerase [1]) | Results Hit validation Median (% inhibition) (viral RNA polymerase [2]) | also measured |
| --- | --- | --- | --- |
| OC[C@@H]1O[C@H](Oc2ccc(O)c3cccc(O)c23)[C@@H](O)[C@H](O)[C@H]1O [AD153413-14_C5] | 63.3 | 52.6 |  |
| CC1CCC2(C)CCC3(C)C(=CCC4C5(C)CCC(O)C(C)(C(=O)O)C5CCC43C)C2C1C (centres unmarked) [AD153413-25_A7] | 85.9 | 70 |  |
| CC(=O)O[C@H]1CC[C@]2(C)C(CC[C@@]3(C)C2[C@@H](O)C=C2[C@@H]4[C@H](C)[C@@H](C)CC[C@@]4(C)CC[C@@]23C)[C@]1(C)C(C)=O (some centres unmarked) [AD153413-25_A8] | 73.8 | 86.3 |  |
| O=C(CCc1ccc(O)cc1)CC(CCc1ccc(O)cc1)OC1O[C@@H](COC(=O)/C=C/c2ccc(O)cc2)[C@H](O)[C@@H](O)[C@@H]1O (some centres unmarked) [AD153413-07_H11] | 70 | 45.2 |  |
| CC[C@H](C1=C(O)C(C)(C)C(=O)C(C)(C)C1=O)c1c(O)cc(O)c(C(=O)C(C)C)c1O [AD153413-09_B9] | 85.2 | 61.5 |  |
| CC[C@H](C)/C=C(C)/C=C/C(=O)Cc1cc(O)c(C)c(O)c1C=O [AD153413-17_A5] | 71 | 70.9 |  |
| COC(=O)[C@H](Cc1ccccc1)NC(=O)c1ccccc1 [AD153413-18_A11] | 81 | 60.6 |  |
| COc1cc(-c2cc(=O)c3c(O)c(C4OC(CO)C(O)C(OC5OC(CO)C(O)C(O)C5OC5OC(CO)C(O)C(O)C5O)C4OC(=O)/C=C/c4ccc(O)c(O)c4)c(O)cc3o2)ccc1O (centres unmarked) [AD153413-17_A4] | 69.6 | 52.3 |  |
| COc1ccc2c(c1)OC1c3ccc(OC)cc3OCC21 (centres unmarked) [AD153413-01_A10] | 84.5 | 77.6 |  |
| CC1(C)CCC[C@@]2(C)[C@H]1[C@H](O)C=C1COC(=O)[C@]12O (racemic) [AD153413-10_B3] | 60.9 | 43.3 |  |
| COc1cc(C2OC(c3cc(OC)c(OC)c(OC)c3)C(C)C2C)cc(OC)c1OC (centres unmarked) [AD153413-14_E9] | 67.1 | 43.8 |  |
| COc1cc(OC)cc([C@@H](C)C(=O)c2ccc(O)cc2O)c1 [AD153413-09_A6] | 81.1 | 64.2 |  |
| CC1(C)C2CC[C@]3(C)C(C(=O)C=C4[C@H]5C[C@@](C)(C(=O)O)CC[C@]5(C)CC[C@]43C)[C@@]2(C)CC[C@@H]1O (some centres unmarked) [AD153413-01_B11] | 75.6 | 72.1 |  |
| O=C(O)/C=C/c1ccccc1O[C@H]1O[C@@H](CO)[C@H](O)[C@@H](O)[C@@H]1O [AD153413-02_F8] | 86.7 | 44 |  |
| CC1=C[C@H](C/C(C)=C/COc2c3occc3cc3ccc(=O)oc23)OC1=O [AD153413-25_H9] | 79.1 | 51.1 |  |
| CC(O)CC1CCC(C(C)C(=O)OC(C)CC2CCC(C(C)C(=O)O)O2)O1 (centres unmarked) [AD153413-16_A3] | 83 | 44.5 |  |
| C/C=C/c1ccc2c(c1)[C@H](C)[C@@H](c1ccc(O)cc1)O2 [AD153413-19_H4] | 98.8 | 50.8 |  |
| COc1cc(-c2oc3cc(O[C@H]4O[C@@H](CO)[C@H](O)[C@@H](O)[C@@H]4O)c(OC)c(O)c3c(=O)c2OC)ccc1O [AD153413-17_A6] | 77.1 | 62.2 |  |
| COc1cc(O)c2c(c1)C(O)C(C)OC2=O (centres unmarked) [AD153413-16_B4] | 72.5 | 53.6 |  |
| B1 |  |  | binding result [5]: binds |
